The values that follow come from patent US20220289787A1, “DIMER COMBINATIONS AND USES THEREOF” (Ripple Therapeutics Corporation, priority 2019, published 2022).

This data set can be described thus: Drug release from heat-molded pellets of Compound 1 in PBS at 37° C. (HPLC). Format: physicochemical. The conditions noted are these: FIG. 2. As for the experimental part:
Heat-molded pellets from Compound 1 (^˜1 mm×1 mm) were placed in 20 mL glass vials and 2 mL of the release buffer phosphate buffered saline (PBS) was added.

`C[C@@H]1C[C@H]2[C@@H]3CCC4=CC(=O)C=C[C@]4(C)[C@@]3(F)[C@@H](O)C[C@]2(C)[C@@]1(O)C(=O)COC(=O)OCCOCCOCCOC(=O)OCC(=O)[C@@]1(O)[C@H](C)C[C@H]2[C@@H]3CCC4=CC(=O)C=C[C@]4(C)[C@@]3(F)[C@@H](O)C[C@@]21C` [Compound 1, dexamethasone-triethylene glycol-dexamethasone]: the “dexamethasone release profile (cumulative drug release)” value (heat-molded pellets ~1 mm×1 mm) is “zero-order (e.g., near zero order) release”. The “duration of zero-order release” value (heat-molded pellets) is “at least 100 days”.
